According to ChEMBL document CHEMBL4346692, “Anti-PqsR compounds as next-generation antibacterial agents against Pseudomonas aeruginosa: A review” (Eur J Med Chem, 2019):

How the values were obtained:
[1] = Binding affinity to Pseudomonas aeruginosa His6/Sumo-tagged PqsR C87 mutant expressed in Escherichia coli BL21 (DE3) […] cells by surface plasma resonance method
[2] = biological target: T1, 2-heptyl-4(1H)-quinolone synthase PqsD (Pseudomonas aeruginosa, UniProt A0A0C7ACN7); assay: Inhibition of Pseudomonas aeruginosa PqsD
T1 sequence (A0A0C7ACN7 whole entry): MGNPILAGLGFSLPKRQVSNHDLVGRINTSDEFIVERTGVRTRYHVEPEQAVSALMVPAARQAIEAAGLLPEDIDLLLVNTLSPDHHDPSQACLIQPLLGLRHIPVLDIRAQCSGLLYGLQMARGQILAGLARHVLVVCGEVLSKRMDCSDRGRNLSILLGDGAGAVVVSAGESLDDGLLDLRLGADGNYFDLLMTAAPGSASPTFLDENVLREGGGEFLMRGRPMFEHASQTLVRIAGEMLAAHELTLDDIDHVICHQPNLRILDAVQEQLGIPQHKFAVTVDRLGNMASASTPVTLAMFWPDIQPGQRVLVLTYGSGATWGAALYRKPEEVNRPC

[3] = biological target: T2, Transcriptional regulator MvfR (Pseudomonas aeruginosa PA14, UniProt A0A072ZLE6); assay: Inhibition of Pseudomonas aeruginosa PqsR
T2 sequence (A0A072ZLE6 whole entry): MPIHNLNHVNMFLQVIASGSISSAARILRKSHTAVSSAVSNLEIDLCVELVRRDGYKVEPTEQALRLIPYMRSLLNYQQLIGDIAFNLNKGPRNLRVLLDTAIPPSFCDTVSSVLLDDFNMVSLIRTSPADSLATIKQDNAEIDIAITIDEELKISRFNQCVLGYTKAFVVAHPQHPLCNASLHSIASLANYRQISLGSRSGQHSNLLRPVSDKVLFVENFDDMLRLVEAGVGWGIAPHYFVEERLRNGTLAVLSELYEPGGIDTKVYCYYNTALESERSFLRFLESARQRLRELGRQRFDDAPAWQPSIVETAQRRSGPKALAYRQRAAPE

[4] = biological target: T3, Transcriptional regulator MvfR (Pseudomonas aeruginosa PA14) (UniProt A0A072ZLE6); assay: Inhibition of Pseudomonas aeruginosa PqsR relative to control; details: concentration not given here
T3 sequence (whole entry): T2 sequence (A0A072ZLE6 whole entry)

[5] = Antagonist activity at His6 -tagged Pseudomonas aeruginosa PqsR C87 mutant expressed in Escherichia coli BL21 (DE3) cells by surface plasma resonance method
[6] = Half life in human hepatic microsomes at 1 uM in presence of NADPH by UPLC-MS/MS analysis; assay type: ADME, Microsome; details: liver microsomes
[7] = Half life in rat hepatic microsomes at 1 uM in presence of NADPH by UPLC-MS/MS analysis; assay type: ADME, Microsome; details: liver microsomes
[8] = biological target: T2, Transcriptional regulator MvfR; assay: Antagonist activity at His6 -tagged Pseudomonas aeruginosa PqsR CBD domain expressed in Escherichia coli Rosetta 2 (DE3)
[9] = Agonist activity at Pseudomonas aeruginosa pqsA delta frame deletion mutant

CCCCCCCc1cc(=O)c2cc(C(F)(F)F)ccc2[nH]1
Kd [1]: 0.057 µM

CS(=O)(=O)c1nccc(-n2cnnn2)n1
IC50 [2]: 21 µM | IC50 [3]: 15 µM

CCCCCCS(=O)(=O)c1nccc(-n2ccnn2)n1
inhibition [4]: 47% | IC50 [2]: 1.7 µM | IC50 [3]: 50 µM

CC(C)(C)c1ccc(C(=O)NO)cc1
IC50 [5]: 23.6 µM

O=CN1N=C(c2ccccc2)CC1c1cccc(Nc2ccnc3cc(Cl)ccc23)c1 (centres undefined)
half-life at 1 µM [6]: < 30 min | half-life at 1 µM [7]: < 30 min

CCCCCCCCCc1nc2cc(F)c(F)cc2c(=O)n1N
IC50 [8]: 1.2 µM

CCCCCCCCCc1nc2cc(Cl)ccc2c(=O)n1N
IC50 [8]: 5 µM

CCCCCCCCCc1nc2cc(F)ccc2c(=O)n1OC
EC50 [9]: 2.2 µM

CCCCCCCCCc1nc2cc(F)ccc2c(=O)n1N
IC50 [8]: 3.9 µM

CCCCCCCc1[nH]c2ccccc2c(=O)c1O
EC50 [9]: 1.9 µM
